# According to patent US20110028566A1, “COMPOSITIONS AND PRODUCTS CONTAINING CYCLOALIPHATIC DIOL ANTIMICROBIAL AGENTS AND METHODS OF USING THE COMPOSITIONS AND PRODUCTS” (EASTMAN CHEMICAL COMPANY, priority 2009, published 2011):
# “And” between values parts separate entries of the source, which are not always exact repeats. Equal values may be shown once.
# Columns and labels:
# [1] = tested on: Pseudomonas aeruginosa ATCC 27853; experiment: MIC determination and synergy testing (Kull synergy index), microplate; assay type: cell-based; details: for QA, MIC of CHDM alone: plate 169E (CG series)
# Method in brief: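 Broth microdilution in TSB (pH 7.3) for bacteria or SDB (pH 5.6) for C. albicans, 1:1.3333 serial dilutions covering one log in nine steps, agents alone or blended for synergy; triplicate wells inoculated to ~10^6 CFU/mL bacteria or ~10^5 CFU/mL yeast; uninoculated wells correct compound turbidity.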
# [2] = tested on: Corynebacterium xerosis ATCC #373; experiment: Synergy testing in brain heart infusion media, 96-well plates; assay type: cell-based; details: for % CHDM: relative to CHDM alone; for SI: synergy index
# Method: MICs were determined using a high-throughput microplate method. Individual antimicrobial agents were added to TSB (pH 7.3) for bacterial testing or SDB (pH 5.6) for fungal testing at the highest concentration to be tested. A serial dilution series was prepared at a dilution ratio of 1:1.3333 such that a one log range was covered in nine dilutions. Two-hundred microliters of the diluted antimicrobial agents were dispensed into four wells each of a sterile, 96-well, flat-bottom microplate (Nalge Nunc International). Four additional wells of the highest concentration were dispensed to serve as uninoculated high-level controls. Eight additional wells containing only broth medium were also prepared, four to serve as negative controls and four as positive controls. Three wells of each antimicrobial agent dilution were inoculated with one of the test strains in Table 7. The final well of each antimicrobial agent dilution was left uninoculated to serve as a control (and means of compensating) for any absorbance/turbidity due to the test compounds.
# The individual antimicrobial agents listed in Table 8 were tested in combination with CHDM. The MIC values determined in the individual antimicrobial agent testing described above were used to establish a target MIC. In each experiment, MIC values for the individual antimicrobial agents and CHDM were determined in order to eliminate any variability due to comparison of data from different dates. Testing was done over a range of four concentrations separated by a factor of 1.3333 as described above. The four concentrations were the target MIC plus one dilution level higher and two dilution levels lower than the target. Combinations of antimicrobial agents and CHDM were made at 50% of the target MIC values and the higher and lower individual levels. Additionally, 50% level series were also tested with the antimicrobial agent or CHDM at one dilution level lower than the target level. The method of Kull et. al. (F. C. Kull et al., Applied Microbiology, 9, p 538-541 (1961)) was used to determine whether there was synergistic activity between CHDM and each antimicrobial agent for inhibition of each of the five microbes. MICs for the individually-tested CHDM and antimicrobial agent, as well as the concentration of CHDM and antimicrobial agent in the combination MIC were used to calculate a synergy index (SI) according to the equation: […]
# where Qa and Qb are the minimum inhibitory concentrations for CHDM and a antimicrobial agent, respectively, when tested independently, and QA and QB are the concentrations of CHDM and a antimicrobial agent, respectively, in combination at an inhibitory concentration. Accordingly, synergy is defined as a SI less than one.
# Experiments were also conducted using Corynebacterium xerosis, which is a bacterium known to cause body odor. […] The Corynebacterium xerosis bacterium used in this example was ATCC #373. The seed culture was grown in brain heart infusion medium. Assays were performed in brain heart infusion media in 96-well plates as described in Example 2. The brain heart infusion medium was at a pH of about 7.4. All growth was conducted at 37° C.
# [3] = P. aeruginosa, plate 126E, day 2, PE and CHDM
smiles,measurement,setting,value
"OCC1CCC(CO)CC1 (stereo not shown) [1,4-CHDM, 1,4-cyclohexanedimethanol]",QA/a,"[1]; CHDM alone (QA) or in combination with BA:DHA (a), plate 149E, day 1",1.31
same,QA/a,"[1]; CHDM alone (QA) or in combination with BA:DHA (a), plate 149E, day 2",1.75
same,QA/a,"[1]; CHDM alone (QA) or in combination with DMDM hydantoin (a), plate 150E, day 1",1.31
same,QA/a,"[1]; CHDM: MIC alone (QA) or conc. in combination with CP (a), plate 148E, day 1",1.31
same,QA/a,"[1]; CHDM: MIC alone (QA) or conc. in combination with MIT (a), plate 147E, day 1",1.31
same,QA/a,"[1]; CHDM: MIC alone (QA) or conc. in combination with MIT (a), plate 147E, day 2",2.33
same,QA/a,"[1]; CHDM: MIC alone (QA) or conc. in combination with MIT (a), plate 210E, day 1",1.75
same,QA/a,"[1]; CHDM: MIC alone (QA) or conc. in combination with MIT (a), plate 210E, day 2",1.75
same,QA/a,"[1]; CHDM: MIC alone (QA) or conc. in combination with MIT (a), plate 249E, day 1",1.80
same,QA/a,"[1]; CHDM: MIC alone (QA) or conc. in combination with MIT (a), plate 249E, day 2",1.80
same,QA/a,"[1]; CHDM: MIC alone (QA) or conc. in combination with MP (a), plate 146E, day 1",1.31
same,"QA, MIC of CHDM alone","[1]; P. aeruginosa, day 1 of incubation",1.31 weight percent
same,"QA, MIC of CHDM alone","[1]; P. aeruginosa, day 2 of incubation",1.75 weight percent
same,"QA, MIC of CHDM alone","[1]; P. aeruginosa, day 3 of incubation",1.75 weight percent
same,"QA/a: concentration of CHDM (MIC alone, or in the combination at an inhibitory concentration)",[1]; [3],1.75 weight percent
same,SI (synergy index),[1]; [3],1.00
same,"QA/a: concentration of CHDM alone (QA, MIC)","[1]; Table 43, P. aeruginosa, Day 1",1.31 weight percent and 1.35 weight percent
same,"QA/a: concentration of CHDM alone (QA, MIC)","[1]; Table 43, P. aeruginosa, Day 2",1.75 weight percent and 1.80 weight percent and 1.35 weight percent
same,"QA/a: concentration of CHDM alone (QA, MIC)","[1]; Table 45, P. aeruginosa, Day 1",1.31 weight percent and 1.35 weight percent and 1.80 weight percent
same,"QA/a: concentration of CHDM alone (QA, MIC)","[1]; Table 45, P. aeruginosa, Day 2",2.33 weight percent and 1.75 weight percent and 1.80 weight percent
same,"QA/a: concentration of CHDM alone (QA, MIC)","[1]; Table 48, P. aeruginosa, Day 1",1.75 weight percent and 1.31 weight percent
same,"QA/a: concentration of CHDM alone (QA, MIC)","[1]; Table 48, P. aeruginosa, Day 2",2.33 weight percent and 1.75 weight percent
same,% CHDM,"[2]; Day 2, CHDM with EHG",100.0%
same,% CHDM,"[2]; Day 2, CHDM with TRI",100.0%
same,QA/a (CHDM),"[2]; Day 2, inhibitory concentration of CHDM alone or in combination with EHG, plate EX194-195-EHG-Syn1",2.110
same,QA/a (CHDM),"[2]; Day 2, inhibitory concentration of CHDM alone or in combination with TRI, plate EX194-195-TRI-Syn1",2.110
same,SI,"[2]; Day 2, CHDM with EHG",1.00
same,SI,"[2]; Day 2, CHDM with TRI",1.00
same,% CHDM,"[2]; Day 3, CHDM with EHG",100.0%
same,% CHDM,"[2]; Day 3, CHDM with TRI",100.0%
same,QA/a (CHDM),"[2]; Day 3, inhibitory concentration of CHDM alone or in combination with EHG, plate EX194-195-EHG-Syn1",2.110
same,QA/a (CHDM),"[2]; Day 3, inhibitory concentration of CHDM alone or in combination with TRI, plate EX194-195-TRI-Syn1",2.110
same,SI,"[2]; Day 3, CHDM with EHG",1.00
same,SI,"[2]; Day 3, CHDM with TRI",1.00
